Data published in US8895746B2 (University of Central Florida Research Foundation, Inc., priority 2009, dated 2014).
pKd: −log10 of the molar value.

Assays:
His-tagged Stat3 = target: T1, His-tagged Stat3 (Mus musculus, UniProt P42227); test: Surface Plasmon Resonance analysis of binding to immobilized His-tagged Stat3; set-up: species or system murine
T1 construct: Coding regions for the murine Stat3 protein; made in house; host or cells: E. coli BL21(DE3)
From the text: (§1) Coding regions for the murine Stat3 protein and Stat3 SH2 domain were amplified by PCR and cloned into vectors pET-44 Ek/LIC (Novagen) and pET SUMO (Invitrogen), respectively.
Clones were sequenced to verify the correct sequences and orientation. His-tagged recombinant proteins were expressed in BL21(DE3) cells, and purified on Ni-ion sepharose column.
SensiQ and its analysis software Qdat (ICX Technologies, Oklahoma City, Okla.) were used to analyze the interaction between agents and the Stat3 protein and to determine the binding affinity. Purified Stat3 was immobilized on a HisCap Sensor Chip by injecting 50 µg/ml of Stat3 onto the chip. […] The association and dissociation rate constants were calculated using the Qdat software. The ratio of the association and dissociation rate constants was determined as the affinity (KD).
To provide definitive evidence of direct binding to Stat3, biophysical studies were performed. H1s-tagged Stat3 protein (or SH2 domain; 50 ng) was immobilized on a Ni-NTA sensor chip surface for Surface Plasmon Resonance analysis of the binding of 531201.1066 as the analyte. Association and dissociation measurements were taken and the binding affinity of S31-201.1066 for Stat3 was determined using Qdat software.

Stat3 SH2 domain = target: T2, Stat3 SH2 domain (Mus musculus, UniProt P42227); test: EMSA of Stat3 DNA-binding with added purified His-tagged Stat3 SH2 domain; format: biochemical, murine; settings: 1-500 ng His-SH2; full recovery at 125-500 ng
T2 construct: Purified histidine-tagged Stat3 SH2 domain (His-SH2) was added at increasing concentrations (1-500 ng); SUMO (vector pET SUMO); made in house; host or cells: E. coli BL21(DE3)
T2 sequence (P42227 580-670 limits assumed): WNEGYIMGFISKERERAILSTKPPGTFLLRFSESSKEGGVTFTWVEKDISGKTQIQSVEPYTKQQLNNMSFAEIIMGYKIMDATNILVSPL
From the text: as §1

[1] = target: T3, Stat3 association with EGFR (Homo sapiens, UniProt P40763); test: Co-immunoprecipitation of EGFR immunecomplex from treated Panc-1 and MDA-MB-231 cells; format: cell-based
T3 construct: immunoprecipitated from whole-cell lysates prepared from treated and untreated cancer cells and blotted for Stat3; endogenous in cells; host or cells: Panc-1 and MDA-MB-231 cells
T3 sequence (P40763 2-770 limits assumed): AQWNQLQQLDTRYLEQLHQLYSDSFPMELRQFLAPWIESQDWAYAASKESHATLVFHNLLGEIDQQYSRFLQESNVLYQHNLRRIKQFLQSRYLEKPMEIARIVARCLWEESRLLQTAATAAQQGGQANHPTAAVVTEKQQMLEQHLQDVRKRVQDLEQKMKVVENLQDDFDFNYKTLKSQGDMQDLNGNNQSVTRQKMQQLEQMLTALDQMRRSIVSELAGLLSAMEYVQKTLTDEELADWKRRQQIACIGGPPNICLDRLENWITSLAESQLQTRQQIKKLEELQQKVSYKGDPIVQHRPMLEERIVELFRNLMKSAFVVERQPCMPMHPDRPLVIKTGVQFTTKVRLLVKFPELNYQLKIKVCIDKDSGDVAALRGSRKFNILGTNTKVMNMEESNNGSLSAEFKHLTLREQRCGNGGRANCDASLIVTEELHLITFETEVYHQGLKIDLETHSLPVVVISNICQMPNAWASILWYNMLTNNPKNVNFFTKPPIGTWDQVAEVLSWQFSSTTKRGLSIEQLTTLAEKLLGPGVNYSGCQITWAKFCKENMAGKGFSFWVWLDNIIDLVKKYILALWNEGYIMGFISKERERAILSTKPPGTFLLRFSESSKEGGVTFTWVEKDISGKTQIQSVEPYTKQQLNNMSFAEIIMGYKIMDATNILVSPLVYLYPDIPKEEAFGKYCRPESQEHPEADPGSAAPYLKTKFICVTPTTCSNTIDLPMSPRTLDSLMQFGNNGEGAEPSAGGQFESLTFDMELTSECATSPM
Protocol: (§2) Immunoprecipitation from whole-cell lysates and SDS/PAGE and Western blotting analysis were performed as previously described (33,38).
Cells were then subjected to immunostaining for EGFR (red) and Stat3 (green) and analyzed by confocal microscopy for EGF-induced colocalization of Stat3 and EGFR and for Stat3 nuclear translocation, as previously performed (17). In the resting NIH3T3/hEGFR fibroblasts, EGFR (red) is widely localized at the plasma membrane, while Stat3 (green) is localized at both the plasma membrane and in the cytoplasm, with a minimal colocalization with EGFR at the plasma membrane and no visible presence in the nucleus (stained blue for DAPI) (FIG. 4A upper panel).

Stat3:EGFR immunecomplex = target: T4, Stat3:EGFR immunecomplex (Homo sapiens, UniProt P40763); test: Direct treatment of EGFR and Stat3 immunecomplexes from Panc-1 lysates, Western blotting; format: biochemical; settings: 0-100 M, 3 h
T4 construct: precipitated from whole-cell lysates of untreated Panc-1 cells; endogenous in cells; host or cells: Panc-1 cells (immunoprecipitates from whole-cell lysates)
T4 sequence (P40763 2-770 limits assumed, one chain of several): as the sequence (P40763 2-770 limits assumed) above
Protocol: as §2
The EGFR levels in the immunecomplexes remained unchanged (FIG. 4B(ii), upper band). […] The Stat3 levels in the immunecomplexes remained unchanged (FIG. 4B(ii), i.p. Stat3, blot Stat3).

NIH3T3/v-Ras = test: Colony survival assay; format: cell-based, mouse
Protocol: This was performed as previously reported (39). […] Colonies were stained with crystal violet for 4 h and counted under phase-contrast microscope.
Cultured single-cells were untreated or treated once with S3I-201.1066 and allowed to grow until large colonies were visible, which were stained and enumerated.

[2] = tested on: MDA-MB-231, Panc-1 and NIH3T3/v-Src cells; test: Wound healing assay for migration; format: cell-based, human, mouse
From the text: (§3) Wounds were made using pipette tips in monolayer cultures of cells in six-well plates. […] The migration of cells was visualized at a 10× magnification using an Axiovert 200 Inverted Fluorescence Microscope (Zeiss, Göttingen Germany), with pictures taken using a mounted Canon Powershot A640 digital camera (Canon USA, Lake Success, N.Y.). Cells that migrated into the denuded area were quantified. Mice and in vivo tumor studies-Six-week-old female athymic nude mice were purchased from Harlan and maintained in the institutional animal facilities approved by the American Association for Accreditation of Laboratory Animal Care. Athymic nude mice were injected subcutaneously in the left flank area with 5×10^6 human breast cancer MDA-MB-231 cells in 100 μL of PBS. After 5 to 10 days, tumors of a diameter of 3 mm were established. […] Tumor volume was calculated according to the formula V=0.52×a^2×b, where a, smallest superficial diameter, b, largest superficial diameter.

NIH3T3/v-Ras fibroblasts = test: Wound healing assay for migration; format: cell-based, mouse; settings: same treatment conditions
From the text: as §3

[3] = tested on: c-Myc, Bcl-xL, VEGF, and MMP-9 proteins; test: Immunoblotting of Stat3-regulated gene products in MDA-MB-231 and Panc-1 cells; format: cell-based, human; settings: 48 h-treatment
Protocol: as §2
Known Stat3 downstream target genes are key in the dysregulated biological processes promoted by aberrant Stat3 (9, 20, 42).

T1 sequence (P42227 whole entry): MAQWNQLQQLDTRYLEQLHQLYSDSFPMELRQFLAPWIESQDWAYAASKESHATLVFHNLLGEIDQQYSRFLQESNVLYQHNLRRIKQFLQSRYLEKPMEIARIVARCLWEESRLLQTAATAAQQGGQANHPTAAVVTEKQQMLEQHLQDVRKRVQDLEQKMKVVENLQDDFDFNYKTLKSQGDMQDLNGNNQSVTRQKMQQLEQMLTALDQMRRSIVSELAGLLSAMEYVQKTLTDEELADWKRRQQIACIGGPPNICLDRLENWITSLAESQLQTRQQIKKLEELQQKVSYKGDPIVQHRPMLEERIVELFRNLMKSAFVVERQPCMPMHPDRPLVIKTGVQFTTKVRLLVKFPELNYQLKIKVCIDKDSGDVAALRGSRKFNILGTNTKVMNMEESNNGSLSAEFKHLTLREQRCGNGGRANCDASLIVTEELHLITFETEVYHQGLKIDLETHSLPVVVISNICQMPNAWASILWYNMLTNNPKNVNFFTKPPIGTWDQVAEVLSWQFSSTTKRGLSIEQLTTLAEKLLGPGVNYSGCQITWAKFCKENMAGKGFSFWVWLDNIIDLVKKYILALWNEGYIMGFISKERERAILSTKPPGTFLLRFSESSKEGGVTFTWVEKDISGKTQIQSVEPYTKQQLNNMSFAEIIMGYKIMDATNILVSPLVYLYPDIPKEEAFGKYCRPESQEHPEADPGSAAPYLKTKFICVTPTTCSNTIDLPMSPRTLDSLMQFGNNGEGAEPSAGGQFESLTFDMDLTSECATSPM

In the case of `Cc1ccc(S(=O)(=O)N(C)CC(=O)N(Cc2ccc(C3CCCCC3)cc2)c2ccc(C(=O)O)c(O)c2)cc1` [S3I-201.1066], the pKd (His-tagged Stat3; affinity (KD) for Stat3 or the SH2 domain, SPR) was 5.64, the pKd (His-tagged Stat3; binding affinity, Ko / KD for Stat3, SPR, immobilized His-Stat3) was 8.56 and the “inhibition of Stat3 DNA-binding activity in presence of increasing purified His-SH2 domain” value (Stat3 SH2 domain) was “progressively eliminated”. The “Shc or Grb 2 levels associated with EGFR in the complex” value [1] was “without affecting”, the “level of Stat3 associated with EGFR in the immunecomplex” value [1] was “significantly diminished” and the “levels of activated and total Erk1/2 in whole-cell lysates” value [1] was “unaffected”. For the same compound, the “EGFR levels in directly treated Stat3 immunecomplex” value (Stat3:EGFR immunecomplex) was “strongly reduced EGFR levels”, the “level of Stat3 present in directly treated EGFR immunecomplex” value (Stat3:EGFR immunecomplex) was “dramatically diminished” and the “levels of Shc or Grb 2 in directly treated EGFR immunecomplex” value (Stat3:EGFR immunecomplex) was “no visible changes”. The “colony numbers, colony survival” value (NIH3T3/v-Ras) was “minimal effect”, the “numbers of cells migrating into the denuded area” value ([2]; 30 µM) was “statistically lower numbers” and the “numbers of cells migrating into the denuded area” value ([2]; 12-24 h treatment) was “Significantly reduced numbers”. For the same compound, the “apoptosis of the treated cells” value ([2]; 12-24 h treatment, data not shown) was “no evidence of apoptosis”, the “numbers of cells migrating into the denuded area” value ([2]; 50 or 100 μM) was “strongly reduced numbers” and the migration (NIH3T3/v-Ras fibroblasts) was “minimally affected”. The “expression of c-Myc, Bcl-xL, VEGF, and MMP-9 proteins” value [3] was “significantly suppressed”.
